The structures appear in SMILES notation.

The text below walks through data of publication PMC10119930, “Dual Molecules Targeting 5-HT6 and GABA-A Receptors as a New Approach to Combat Depression Associated with Neuroinflammation” (ACS Chemical Neuroscience, 2023).

Data set [1] relates to human α1β2γ2-GABA-A receptors. Briefly: Electrophysiological studies, automated patch clamp (QPatch16X), HEK293 cells. It is filed as cell-based. The settings on record: agonist mode, compound at 10 μM; current amplitude normalized to 10 μM GABA response; ±S.E.M. The protocol: Electrophysiological studies were acquired using the QPatch16X automatic patch clamp platform (Sophion Biosciences) as described before.[42],[43] […] Before the assay, cells were detached from the culture flask by treating them with TrypLE Express solution (Life Technologies) and subsequently suspended in serum-free media. The cells were loaded into a 1.5 mL microtube on the automated electrophysiology instrument, which subsequently performed a spin-down using its built-in centrifuge. Following this, the cells were washed with Ringer’s extracellular solution. The cells were moved to the pipetting wells of a 16-channel planar patch chip plate (QPlate 16X) designed for single-use. A combined suction/voltage protocol was then applied to establish gigaseals. […] During the entire whole-cell recording, the holding potential was maintained at −90 mV. […] The intracellular solution contained 140 mM CsF, 1 mM EGTA, 5 mM CsOH, 10 mM HEPES, 20 mMNaCl (pH 7.2, 320 mOsm). […] The acquired data were examined with QPatch assay software (v5.0, Sophion Biosciences)[44] and are represented as the mean of three separated measurements performed on distinct cells. The efficacy of the tested molecules was determined by calculating the baseline-corrected ratio of the maximum current amplitudes elicited by the tested compounds and the reference agonist (T1-ATG/AG1-ATG or T2-ATG/AG1-ATG). The raw current recordings were standardized and presented as a percentage of the current amplitude evoked by the reference agonist, using the QPatch assay software (v5.0, Sophion Biosciences).
For orientation: In patch-clamp work, channel activity is measured electrically.

Data set [2] has as its system female Wistar rats. Set-up: method as in PMID 36603509. The settings on record: not tested here; cited from earlier work.
The nature of data set [3]: Parallel artificial membrane permeability assay (PAMPA). It is filed as in vitro ADME. The settings on record: tested at 10^–5 M, PAMPA Plate System Gentest. The procedure:
To estimate the passive transport through cell membranes, we used specialized PAMPA Plate System Gentest acquired from Corning (Tewksbury, MA, USA). The assay was performed as described in the manufacturer’s protocol. The quantitative measurements of tested molecules in apical and basolateral wells were conducted using LC/MS (Waters ACQUITY TQD system with the TQ detector, Milford, USA) and a specific internal standard. The Pe permeability coefficient was calculated rendering the formulas described previously[47],[47] and compared to the reference compound sulpiride.
(PAMPA measures passive passage across an artificial lipid membrane.)

With `NCCCC(=O)O` [GABA], the “[%] of 10 μM GABA activity” value in data set [1] was 100%. The antidepressant effects entry in data set [2] is on record as “does not produce antidepressant effects”.

In general, Papp refers to a coefficient for how fast a substance crosses the barrier. Read a high Papp as ready permeation. Consider `CCN1CCCC1CNC(=O)c1cc(S(N)(=O)=O)ccc1OC` (stereo not drawn) [sulpiride, reference compound], for which the Papp in data set [3] was 0.016 ×10⁻⁶ cm/s.
